Structures can show the parent of a compound that is named as a salt.
Columns and labels:
Type in all cases: cell-based
Settings in all cases: free compounds (natural products and synthetic analogs), cell viability 96 hours after treatment
[1] = test system: N87 (gastric cancer) cells; experiment: In vitro cell assay (MTS cell viability), N87
Procedure, shortened: (§1)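 Cells seeded 24 h, then treated with antibody-drug conjugates or free drug, 3-fold serial dilutions at 10 concentrations in duplicate. Viability by MTS at 96 h as percent of untreated control; IC50 from four-parameter logistic fit.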

[2] = test system: BT474 (breast cancer) cells; experiment: In vitro cell assay (MTS cell viability), BT474
Method: Target expressing (BT474 (breast cancer), N87 (gastric cancer), HCC1954 (breast cancer), MDA-MB-361-DYT2 (breast cancer)) or non-expressing (MDA-MB-468) cells were seeded in 96-well cell culture plates for 24 hours before treatment. Cells were treated with 3-fold serially diluted antibody-drug conjugates or free compounds (i.e., no antibody conjugated to the drug) in duplicate at 10 concentrations. Cell viability was determined by CellTiter 96® AQueous One Solution Cell Proliferation MTS Assay (Promega, Madison Wis.) 96 hours after treatment. Relative cell viability was determined as percentage of untreated control. IC50 values were calculated using a four parameter logistic model #203 with XLfit v4.2 (IDBS, Guildford, Surry, UK). The potency ranged upward from 0.0002 nm. Similar procedures and techniques were employed.

[3] = test system: MDA-MB-361-DYT2 (breast cancer) cells; experiment: In vitro cell assay (MTS cell viability), MDA-MB-361-DYT2
Procedure, shortened: as §1

SMILES | IC50 ([1]; 96 h) | IC50 ([2]; Homo sapiens, BT-474) | IC50 ([3]; 96 h) | IC50 [1] | IC50 [2] | IC50 [3]
CC(=O)O[C@@H](C)/C=C\C(=O)N[C@@H]1C[C@H](C)[C@H](C/C=C(C)/C=C/[C@H]2O[C@H](CC(=O)NCc3ccc(S(N)(=O)=O)cc3)C[C@@]3(CO3)[C@@H]2O)O[C@@H]1C [#B10, (2S,3Z)-5-{[(2R,3R,5S,6S)-6-{(2E,4E)-5-[(3R,4R,5R,7S)-4-hydroxy-7-{2-oxo-2-[(4-sulfamoylbenzyl)amino]ethyl}-1,6-dioxaspiro[2.5]oct-5-yl]-3-methylpenta-2,4-dien-1-yl}-2,5-dimethyltetrahydro-2H-pyran-3-yl]amino}-5-oxopent-3-en-2-yl acetate] | 12.1 nM | 43.5 nM | 77.5 nM | – | – | –
CC(=O)O[C@@H](C)/C=C\C(=O)N[C@@H]1C[C@H](C)[C@H](C/C=C(C)/C=C/[C@@H]2C[C@]3(CO3)C[C@@H](CC(=O)NCc3ccc(N)cc3)O2)O[C@@H]1C [#B100, (2S,3Z)-5-{[(2R,3R,5S,6S)-6-{(2E,4E)-5-[(3S,5S,7S)-7-{2-[(4-aminobenzyl)amino]-2-oxoethyl}-1,6-dioxaspiro[2.5]oct-5-yl]-3-methylpenta-2,4-dien-1-yl}-2,5-dimethyltetrahydro-2H-pyran-3-yl]amino}-5-oxopent-3-en-2-yl acetate] | 5.05 nM | 10.6 nM | 16.9 nM | – | – | –
CNc1cccc(CNC(=O)C[C@@H]2C[C@@]3(CO3)[C@H](O)[C@@H](/C=C/C(C)=C/C[C@@H]3O[C@H](C)[C@H](NC(=O)/C=C\[C@H](C)OC(C)=O)C[C@@H]3C)O2)c1 [#B83, (2S,3Z)-5-{[(2R,3R,5S,6S)-6-{(2E,4E)-5-[(3R,4R,5R,7S)-4-hydroxy-7-(2-{[3-(methylamino)benzyl]amino}-2-oxoethyl)-1,6-dioxaspiro[2.5]oct-5-yl]-3-methylpenta-2,4-dien-1-yl}-2,5-dimethyltetrahydro-2H-pyran-3-yl]amino}-5-oxopent-3-en-2-yl acetate] | 1.05 nM | 1.45 nM | 2.59 nM | – | – | –
CC(=O)O[C@@H](C)/C=C\C(=O)N[C@@H]1C[C@H](C)[C@H](C/C=C(C)/C=C/[C@H]2O[C@H](CC(=O)NCc3ccc(N)cc3F)C[C@@]3(CO3)[C@@H]2O)O[C@@H]1C [#B84, (2S,3Z)-5-{[(2R,3R,5S,6S)-6-{(2E,4E)-5-[(3R,4R,5R,7S)-7-{2-[(4-amino-2-fluorobenzyl)amino]-2-oxoethyl}-4-hydroxy-1,6-dioxaspiro[2.5]oct-5-yl]-3-methylpenta-2,4-dien-1-yl}-2,5-dimethyltetrahydro-2H-pyran-3-yl]amino}-5-oxopent-3-en-2-yl acetate] | 2.54 nM | 2.53 nM | 8.27 nM | – | – | –
CC(=O)O[C@@H](C)/C=C\C(=O)N[C@@H]1C[C@H](C)[C@H](C/C=C(C)/C=C/[C@@H]2C[C@]3(CO3)C[C@@](C)(O)O2)O[C@@H]1C [#NP12, (2S,3Z)-5-{[(2R,3R,5S,6S)-6-{(2E,4E)-5-[(3R,5S,7S)-7-hydroxy-7-methyl-1,6-dioxaspiro[2.5]oct-5-yl]-3-methylpenta-2,4-dien-1-yl}-2,5-dimethyltetrahydro-2H-pyran-3-yl]amino}-5-oxopent-3-en-2-yl acetate] | 13.8 nM | 5.02 nM | 4.91 nM | – | – | –
CC(=O)O[C@@H](C)/C=C\C(=O)N[C@@H]1C[C@H](C)[C@H](C/C=C(C)/C=C/[C@H]2O[C@H](CC(=O)NCc3ccc(N)cc3)C[C@@]3(CO3)[C@@H]2O)O[C@@H]1C [#B11, (2S,3Z)-5-{[(2R,3R,5S,6S)-6-{(2E,4E)-5-[(3R,4R,5R,7S)-7-{2-[(4-aminobenzyl)amino]-2-oxoethyl}-4-hydroxy-1,6-dioxaspiro[2.5]oct-5-yl]-3-methylpenta-2,4-dien-1-yl}-2,5-dimethyltetrahydro-2H-pyran-3-yl]amino}-5-oxopent-3-en-2-yl acetate] | 1.61 nM | 3.42 nM | 6.71 nM | – | – | –
CC(=O)O[C@@H](C)/C=C\C(=O)N[C@@H]1C[C@H](C)[C@H](C/C=C(C)/C=C/[C@@H]2C[C@]3(CO3)C[C@@H](CC(=O)NCCS(C)(=O)=O)O2)O[C@@H]1C [#B99, (2S,3Z)-5-{[(2R,3R,5S,6S)-2,5-dimethyl-6-{(2E,4E)-3-methyl-5-[(3S,5S,7S)-7-(2-{[2-(methylsulfonyl)ethyl]amino}-2-oxoethyl)-1,6-dioxaspiro[2.5]oct-5-yl]penta-2,4-dien-1-yl}tetraydro-2H-pyran-3-yl]amino}-5-oxopent-3-en-2-yl acetate] | – | – | – | 3.28 nM | 7.87 nM | 21.5 nM
CC(=O)O[C@@H](C)/C=C\C(=O)N[C@@H]1C[C@H](C)[C@H](C/C=C(C)/C=C/[C@H]2O[C@H](CC(=O)N3CCN(C)CC3)C[C@@]3(CO3)[C@@H]2O)O[C@@H]1C [#B13, (2S,3Z)-5-({(2R,3R,5S,6S)-6-[(2E,4E)-5-{(3R,4R,5R,7S)-4-hydroxy-7-[2-(4-methylpiperazin-1-yl)-2-oxoethyl]-1,6-dioxaspiro[2.5]oct-5-yl}-3-methylpenta-2,4-dien-1-yl]-2,5-dimethyltetrahydro-2H-pyran-3-yl}amino)-5-oxopent-3-en-2-yl acetate, acetate salt] | 0.99 nM | 0.68 nM | 1.93 nM | – | – | –
CC(=O)O[C@@H](C)/C=C\C(=O)N[C@@H]1C[C@H](C)[C@H](C/C=C(C)/C=C/[C@@H]2C[C@]3(CO3)C[C@@H](CC(=O)NO)O2)O[C@@H]1C [#B22, (2S,3Z)-5-({(2R,3R,5S,6S)-6-[(2E,4E)-5-{(3S,5S,7S)-7-[2-(hydroxyamino)-2-oxoethyl]-1,6-dioxaspiro[2.5]oct-5-yl}-3-methylpenta-2,4-dien-1-yl]-2,5-dimethyltetrahydro-2H-pyran-3-yl}amino)-5-oxopent-3-en-2-yl acetate] | 4.23 nM | 1.76 nM | 7.46 nM | – | – | –
CC(=O)O[C@@H](C)/C=C\C(=O)N[C@@H]1C[C@H](C)[C@H](C/C=C(C)/C=C/[C@@H]2C[C@]3(CO3)C[C@@H](CC(=O)NN)O2)O[C@@H]1C [#B7, (2S,3Z)-5-{[(2R,3R,5S,6S)-6-{(2E,4E)-5-[(3S,5S,7S)-7-(2-hydrazinyl-2-oxoethyl)-1,6-dioxaspiro[2.5]oct-5-yl]-3-methylpenta-2,4-dien-1-yl}-2,5-dimethyltetrahydro-2H-pyran-3-yl]amino}-5-oxopent-3-en-2-yl acetate] | 0.344 nM | 1.12 nM | 1.88 nM | – | – | –
CC(/C=C/[C@@H]1C[C@]2(CO2)C[C@@H](CC(N)=O)O1)=C\C[C@@H]1O[C@H](C)[C@H](NC(=O)/C=C\[C@H](C)OC(=O)N2CCN(C)CC2)C[C@@H]1C [#B137, (2S,3Z)-5-{[(2R,3R,5S,6S)-6-{(2E,4E)-5-[(3S,5S,7S)-7-(2-amino-2-oxoethyl)-1,6-dioxaspiro[2.5]oct-5-yl]-3-methylpenta-2,4-dien-1-yl}-2,5-dimethyltetrahydro-2H-pyran-3-yl]amino}-5-oxopent-3-en-2-yl-4-methylpiperazine-1-carboxylate] | 5.59 nM | 1.8 nM | 10.3 nM | – | – | –
CC(=O)O[C@@H](C)/C=C\C(=O)N[C@@H]1C[C@H](C)[C@H](C/C=C(C)/C=C/[C@H]2O[C@H](CC(=O)N(C)Cc3ccc(S(=O)(=O)N(C)C)cc3)C[C@@]3(CO3)[C@@H]2O)O[C@@H]1C [#B91, (2S,3Z)-5-{[(2R,3R,5S,6S)-6-{(2E,4E)-5-[(3R,4R,5R,7S)-7-(2-{[4-(dimethylsulfamoyl)benzyl](methyl)amino}-2-oxoethyl)-4-hydroxy-1,6-dioxaspiro[2.5]oct-5-yl]-3-methylpenta-2,4-dien-1-yl}-2,5-dimethyltetrahydro-2H-pyran-3-yl]amino}-5-oxopent-3-en-2-yl acetate] | 0.783 nM | 3.02 nM | 3.78 nM | – | – | –
CC(=O)O[C@@H](C)/C=C\C(=O)N[C@@H]1C[C@H](C)[C@H](C/C=C(C)/C=C/[C@H]2O[C@H](CC(=O)NCc3ccc(S(=O)(=O)N(C)C)cc3)C[C@@]3(CO3)[C@@H]2O)O[C@@H]1C [#B93, (2S,3Z)-5-{[(2R,3R,5S,6S)-6-{(2E,4E)-5-[(3R,4R,5R,7S)-7-(2-{[4-(dimethylsulfamoyl)benzyl]amino}-2-oxoethyl)-4-hydroxy-1,6-dioxaspiro[2.5]oct-5-yl]-3-methylpenta-2,4-dien-1-yl}-2,5-dimethyltetrahydro-2H-pyran-3-yl[amino}-5-oxopent-3-en-2-yl acetate] | – | – | – | 0.647 nM | 2.27 nM | 3.96 nM
CC(/C=C/[C@H]1O[C@H](CC(N)=O)C[C@@]2(CO2)[C@@H]1O)=C\C[C@@H]1O[C@H](C)[C@H](NC(=O)/C=C\[C@H](C)OC(=O)N2CCCCC2)C[C@@H]1C [#B134, (2S,3Z)-5-{[(2R,3R,5S,6S)-6-{(2E,4E)-5-[(3R,4R,5R,7S)-7-(2-amino-2-oxoethyl)-4-hydroxy-1,6-dioxaspiro[2.5]oct-5-yl]-3-methylpenta-2,4-dien-1-yl}-2,5-dimethyltetrahydro-2H-pyran-3-yl]amino}-5-oxopent-3-en-2-yl piperidine-1-carboxylate] | 1.8 nM | 1.18 nM | 2.02 nM | – | – | –
CC(/C=C/[C@@H]1C[C@]2(CO2)C[C@@H](CC(N)=O)O1)=C\C[C@@H]1O[C@H](C)[C@H](NC(=O)/C=C\[C@H](C)OC(=O)N2CCNCC2)C[C@@H]1C [#B136, (2S,3Z)-5-{[(2R,3R,5S,6S)-6-{(2E,4E)-5-[(3S,5S,7S)-7-(2-amino-2-oxoethyl)-1,6-dioxaspiro[2.5]oct-5-yl]-3-methylpenta-2,4-dien-1-yl}-2,5-dimethyltetrahydro-2H-pyran-3-yl]amino}-5-oxopent-3-en-2-yl piperazine-1-carboxylate, acetate salt] | 90.1 nM | 25.5 nM | > 100 nM | – | – | –

Reference: US9504669B2, “Spliceostatin analogs and methods for their preparation” (PFIZER INC., priority 2012, dated 2016)
